Results: patent publication US5891912A, “1,3-dialkylurea derivatives having a hydroxyl group” (Santen Pharmaceutical Co., Ltd., priority 1994, dated 1999)

Target: T1, endopeptidase 24.11 (Rattus norvegicus, UniProt P07861)
T1 construct: was prepared by extracting from a rat kidney; from tissue; host or cells: Wistar rat kidney, homogenate pellet after ultracentrifugation (crude membrane preparation)
T1 sequence (P07861 1-750): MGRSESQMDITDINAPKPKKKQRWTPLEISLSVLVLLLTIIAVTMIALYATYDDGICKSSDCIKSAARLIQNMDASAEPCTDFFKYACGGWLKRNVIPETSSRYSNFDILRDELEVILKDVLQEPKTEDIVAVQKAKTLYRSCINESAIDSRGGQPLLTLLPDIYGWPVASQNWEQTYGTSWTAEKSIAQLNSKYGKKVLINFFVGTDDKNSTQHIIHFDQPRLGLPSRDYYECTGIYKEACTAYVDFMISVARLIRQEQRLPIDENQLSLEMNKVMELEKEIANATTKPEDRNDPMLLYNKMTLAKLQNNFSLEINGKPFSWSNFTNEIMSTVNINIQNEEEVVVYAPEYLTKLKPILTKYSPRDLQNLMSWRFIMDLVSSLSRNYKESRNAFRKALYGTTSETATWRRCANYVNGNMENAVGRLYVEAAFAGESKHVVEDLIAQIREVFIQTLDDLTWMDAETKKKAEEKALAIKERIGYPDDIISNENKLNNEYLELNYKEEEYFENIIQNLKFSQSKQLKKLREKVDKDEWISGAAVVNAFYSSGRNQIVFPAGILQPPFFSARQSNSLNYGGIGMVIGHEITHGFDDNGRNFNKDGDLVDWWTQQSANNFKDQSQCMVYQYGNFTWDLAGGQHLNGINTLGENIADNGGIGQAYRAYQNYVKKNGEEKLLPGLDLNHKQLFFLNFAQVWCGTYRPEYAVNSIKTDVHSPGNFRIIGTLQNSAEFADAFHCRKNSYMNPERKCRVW
Assay: inhibition of endopeptidase 24.11 activity (cleavage of N-dansyl-D-alanyl-glycyl-p-nitrophenylalanyl-glycine, DAGNPG; rat kidney enzyme preparation)
Type: biochemical, Wistar rat
Details: DAGNPG 50 μM, pH 7.4, 37° C., 30 minutes, read-out: IC50 (concentration required to inhibit endopeptidase 24.11 by 50%)
From the text: As a method for measuring an endopeptidase 24.11 activity, Florentin et al. had reported a method for measuring the enzyme activity by a degree of cleavage of a peptide bond between glycine and p-nitrophenylalanine using N-dansyl-D-alanyl-glycyl-p-nitrophenylalanyl-glycine (DAGNPG) as a substrate (Anal. Biochem., 141, 62-69 (1984)). An effect of the compounds of the invention on endopeptidase 24.11 was examined according to the method described in the literature.
An enzyme preparation used in this pharmacological test was prepared by extracting from a rat kidney by the following method according to the method of Malfloy et al. (J. Biol. Chem., 259, 14365-14370 (1984)).
A kidney was excised from a Wistar rat. The kidney was homogenized in Tris-hydrochloric acid buffer (5 mM, pH 7.4, containing 125 mM D-mannitol and 12 mM magnesium chloride). The homogenate was centrifuged at low speed (1,000×g) to give a supernatant. The supernatant was ultracentrifuged ([…]) for 120 minutes. The resulting pellet was suspended in Tris-hydrochloric acid buffer (2.5 mM, pH 7.4, containing 62.5 mM D-mannitol and 6 mM magnesium chloride). The suspension was centrifuged at low speed and then ultracentrifuged again. The resulting pellet was suspended in HEPES buffer (5 mM, pH 7.4) to give the enzyme preparation.
In order to examine the effect of the compounds of the invention on the enzyme preparation, reactions were performed under the following condition using mixed solutions consisting of the composition shown in Table 1. […]
______________________________________
Enzyme preparation 0.3-0.5 μg protein
The above-mentioned solution (150 μl) was incubated at 37° C. for 30 minutes and then boiled at 100° C. for 5 minutes. To the solution was added 1.35 ml of Tris-hydrochloric acid buffer (50 mM, pH 7.4). The mixture was centrifuged at moderate speed (5,000×g) for 5 minutes to give a supernatant. Fluorescence intensity of the supernatant (excitation at 342 nm of wave length and emission at 562 nm) was measured.
The degree of the inhibitory effect of each test compound on the enzyme preparation was expressed by the inhibition rate calculated by the following equation. [formula]
A: fluorescence intensity of the sample in the absence of the test compound
B: fluorescence intensity of the sample in the presence of the test compound

| Structure (SMILES) | IC50 |
| --- | --- |
| CC(C)CN(CC(O)C(=O)O)C(=O)N[C@@H](Cc1ccccc1)C(=O)O (mixture of isomers) [Compound No. 2-1, (2S)-2-[3-[(2RS)-2-Carboxy-2-hydroxyethyl]-3-isobutylureido]-3-phenylpropionic acid] | 5.4 nM |
| CC(C)CN(C[C@@H](O)C(=O)O)C(=O)N[C@@H](Cc1ccc(-c2ccccc2)cc1)C(=O)O [Compound No. 8-3, (2S)-3-(4-Biphenylyl)-2-[3-[(2R)-2-carboxy-2-hydroxyethyl]-3-isobutylureido]propionic acid] | 2.1 nM |
| CC(C)CN(C[C@H](O)C(=O)NO)C(=O)N[C@@H](Cc1ccccc1)C(=O)O [Compound No. 8-1, (2S)-2-[3-[(2S)-2-Hydroxy-2-hydroxycarbamoylethyl]-3-isobutylureido]-3-phenylpropionic acid] | 0.32 nM |
| CC(C)CN(CC(O)C(=O)O)C(=O)N[C@@H](Cc1ccc(-c2ccccc2)cc1)C(=O)O (mixture of isomers) [Compound No. 3-1, (2S)-3-(4-Biphenylyl)-2-[3-[(2RS)-2-carboxy-2-hydroxyethyl]-3-isobutylureido]propionic acid] | 1.1 nM |
| CC(C)CN(C[C@H](O)C(=O)NO)C(=O)N[C@@H](Cc1ccc2ccccc2c1)C(=O)O [Compound No. 9-1, (2S)-2-[3-[(2S)-2-Hydroxy-2-hydroxycarbamoylethyl]-3-isobutylureido]-3-(2-naphthyl)propionic acid] | 0.27 nM |
| CC(C)CN(C[C@H](O)C(=O)NO)C(=O)N[C@@H](Cc1ccc(-c2ccccc2)cc1)C(=O)O [Compound No. 8-9, (2S)-3-(4-Biphenylyl)-2-[3-[(2S)-2-hydroxy-2-hydroxycarbamoylethyl]-3-isobutylureido]propionic acid] | 0.16 nM |
| CC(C)CN(C[C@H](O)C(=O)O)C(=O)N[C@@H](Cc1ccc(-c2ccccc2)cc1)C(=O)O [Compound No. 8-2, (2S)-3-(4-Biphenylyl)-2-[3-[(2S)-2-carboxy-2-hydroxyethyl]-3-isobutylureido]propionic acid] | 0.95 nM |
| CC(C)CN(CC(O)C(=O)O)C(=O)N[C@H](C(=O)O)c1ccccc1 (mixture of isomers) [Compound No. 3-4, (2RS)-3-[3-[(S)-α-Carboxybenzyl]-1-isobutylureido]-2-hydroxypropionicacid] | 65 nM |
| CC(C)CN(CC(O)C(=O)O)C(=O)N[C@@H](Cc1ccc(-c2ccc(F)cc2)cc1)C(=O)O (mixture of isomers) [Compound No. 3-2, (2S)-2-[3-[(2RS)-2-Carboxy-2-hydroxyethyl]-3-isobutylureido]-3-[4-(4-fluorophenyl)phenyl]propionic acid] | 3.1 nM |
